# Assays:
# [1] = molecular target: T1, NSUN2 (Homo sapiens, UniProt Q08J23); test: NSUN2 enzymatic split aptamer MST assay (selectivity panel); type: biochemical; details: 500 µM of hit compound, Fig. 5D
# T1 construct: made in house
# Description: Next, we investigated the target selectivity of all hit compounds by inhibition experiments using the MTases characterized in this study (DNMT2, METTL3/14, TrmD, and NSUN2) as a selectivity panel. […] While Cpd3 (alexidine) could be identified as a DNMT2 inhibitor during MST- and FP- experiments, the ligand’s hydrophobic nature raised the concern this compound might be an aggregator of DNMT2. To exclude this possibility, we investigated the reversibility of alexidine binding using the FP displacement assay and separation of the alexidine ligand by small-scale size-exclusion chromatography (SEC)[34].
# NSUN2: 50 mM Tris-HCl, pH 7.5, 5 mM EDTA, 5 mM MgCl2, 1.5 mM DTT. 200 nM NSUN2, 1 µM SAM, 250 ng/µL tRNA (total from E. coli). […]
# MST experiments were carried out in at least technical triplicates using a Monolith NT.115 instrument (NanoTemper Technologies) using Monolith standard capillaries and the blue excitation laser setup. […] General settings were applied for all MST experiments as follows: manual temperature control: 25 °C, fluorescence measurement before MST: 4 s, MST (IR laser) on: 20 s, fluorescence after MST: 2 s, delay: 25 s. The laser power was adjusted to optimize the signal-to-noise ratio and the fluorescence signal. […] MST measurements were analyzed using the NT analysis software (version 1.5.41) and exported for statistical analysis and plotting in GraphPad Prism 7.01.
# [2] = molecular target: T2, METTL3/14 (Homo sapiens, UniProt Q86U44); test: METTL3/14 enzymatic split aptamer MST assay; type: biochemical; details: 500 µM of hit compound, Fig. 5D
# T2 construct: purchased BPS Bioscience BPS-100105
# T2 sequence (Q86U44 2-580 limits assumed): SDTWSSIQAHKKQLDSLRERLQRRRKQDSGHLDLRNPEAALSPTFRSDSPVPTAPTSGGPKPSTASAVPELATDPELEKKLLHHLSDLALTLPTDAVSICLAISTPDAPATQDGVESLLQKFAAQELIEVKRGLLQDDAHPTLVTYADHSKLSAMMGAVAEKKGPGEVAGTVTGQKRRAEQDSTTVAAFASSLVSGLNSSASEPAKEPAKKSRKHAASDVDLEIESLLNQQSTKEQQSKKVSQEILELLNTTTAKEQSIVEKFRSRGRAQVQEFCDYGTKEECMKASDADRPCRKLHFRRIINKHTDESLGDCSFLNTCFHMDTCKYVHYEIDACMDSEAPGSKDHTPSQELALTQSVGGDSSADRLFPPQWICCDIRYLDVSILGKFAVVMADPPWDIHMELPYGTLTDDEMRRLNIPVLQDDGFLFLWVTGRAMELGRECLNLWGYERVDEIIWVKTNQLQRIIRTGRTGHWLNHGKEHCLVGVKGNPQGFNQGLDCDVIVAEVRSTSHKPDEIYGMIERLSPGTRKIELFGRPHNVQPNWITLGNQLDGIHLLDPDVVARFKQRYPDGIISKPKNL
# T2 sequence (Q9HCE5 2-456 partner limits assumed): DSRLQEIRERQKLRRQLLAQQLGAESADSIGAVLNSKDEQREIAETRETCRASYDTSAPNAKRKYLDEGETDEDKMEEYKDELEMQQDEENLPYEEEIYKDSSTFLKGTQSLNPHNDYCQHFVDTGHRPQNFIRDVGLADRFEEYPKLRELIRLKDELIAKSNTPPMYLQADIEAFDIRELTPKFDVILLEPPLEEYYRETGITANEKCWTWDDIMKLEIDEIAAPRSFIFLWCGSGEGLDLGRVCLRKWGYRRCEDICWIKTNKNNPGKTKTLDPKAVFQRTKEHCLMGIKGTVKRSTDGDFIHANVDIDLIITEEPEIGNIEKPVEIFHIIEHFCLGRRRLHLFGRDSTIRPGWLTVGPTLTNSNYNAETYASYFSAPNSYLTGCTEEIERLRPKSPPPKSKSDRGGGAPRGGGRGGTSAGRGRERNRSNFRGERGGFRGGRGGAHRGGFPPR
# Protocol: Specifically, we studied the m^6A MTase METTL3/14 and the m^7G MTase S. aureus TrmD.
# For MTase assay detection by MST, enzyme reaction mixtures with a total volume of 10 µL per single treatment condition were prepared and incubated for the desired reaction times. Inhibitors were added from corresponding DMSO stocks to a final DMSO concentration of max. […] Afterward, reactions were quenched at a given reaction time by the addition of 1 µL sodium dodecyl sulfate (SDS, solution, 3% in water) per 10 µL reaction mixture and mixed well by pipetting. […]
# MST experiments were carried out in at least technical triplicates using a Monolith NT.115 instrument (NanoTemper Technologies) using Monolith standard capillaries and the blue excitation laser setup. […] General settings were applied for all MST experiments as follows: manual temperature control: 25 °C, fluorescence measurement before MST: 4 s, MST (IR laser) on: 20 s, fluorescence after MST: 2 s, delay: 25 s. The laser power was adjusted to optimize the signal-to-noise ratio and the fluorescence signal. LED and MST power settings were chosen individually for each sample by adjusting the LED power to yield fluorescence signals of at least 300 units (blue laser) or 3000 units (red laser) and the MST power to achieve an appropriate thermophoretic response (standard setting: medium MST power). […]
# [3] = molecular target: T3, DNMT2-tRNA complex (Homo sapiens, UniProt O14717); test: Electrophoretic mobility shift assay (EMSA) of the DNMT2-tRNA complex; type: binding; details: 500 µM compound, DNMT2 10 µM, tRNAAsp 5 µM
# T3 construct: made in house
# T3 sequence (O14717 1-391): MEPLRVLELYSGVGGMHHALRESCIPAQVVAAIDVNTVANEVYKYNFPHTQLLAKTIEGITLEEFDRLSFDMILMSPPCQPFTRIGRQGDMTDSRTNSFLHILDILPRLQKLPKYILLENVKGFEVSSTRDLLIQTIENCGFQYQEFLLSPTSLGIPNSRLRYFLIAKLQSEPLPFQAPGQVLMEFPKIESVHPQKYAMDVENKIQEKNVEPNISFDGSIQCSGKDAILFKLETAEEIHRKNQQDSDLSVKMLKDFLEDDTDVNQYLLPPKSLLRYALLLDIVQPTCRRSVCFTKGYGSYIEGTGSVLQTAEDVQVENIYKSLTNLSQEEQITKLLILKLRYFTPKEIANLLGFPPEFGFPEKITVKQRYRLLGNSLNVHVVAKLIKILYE
# Protocol: We speculated these hits might bind very weakly to the tRNA-DNMT2 interaction site and by this inhibit DNMT2 activity. To test this hypothesis, we performed an electrophoretic mobility shift assay (EMSA) using tRNA^Asp (5 µM) and DNMT2 (10 µM) compared to the tRNA sample in absence of the DNMT2 protein (SI Fig. 4)[33]. […] Subsequently, we treated the DNMT2-tRNA complex with all hit compounds at 500 µM and observed their potential to disrupt the complex.
# DNMT2 (10 µM) was mixed with tRNA^Asp (5 µM) and treated with 500 µM of the respective screening hit compound in DNMT2 assay buffer (100 mM Tris-HCl, pH 8, 100 mM NH4OAc, 0.1 mM EDTA, 10 mM MgCl2, 10 mM DTT). Subsequently, reaction samples (each 5 µL) were loaded to a native 10% polyacrylamide gel and separated electrophoretically (1 h, 180 V) in 1x TBE. RNA was stained in situ with 1x GelRed and PAGE analysis was conducted by fluorescence scanning at an excitation wavelength of 532 nm (Amersham Typhoon 9400). Positive control: DNMT2+tRNA (band at high molecular weights); negative control: only tRNA (band at low molecular weights).
# SI Figure 4. Electrophore?c mobility shi? assay (EMSA) to inves?gate the inﬂuence of screening hits on the DNMT2-tRNA complex forma?on. D NMT2 (10 µ M ) was mixe d w it h t RNAAsp (5 µM) and treated with 50 0 µM of the respec?ve screening hit compound in DNMT2 assay buﬀer. All reac?on samples (each 5 µL) were loaded to a na?ve 10% polyacr ylamide gel and separated electrophore?cally (1 h, 1 80 V) in 1x TBE. RNA was stained in situ with 1x GelRed and PAGE analysis was conducted by ﬂuorescence scanning at an excita?on wavelength of 532 nm (Amersham Typhoon 9400). Po s i ? ve control: DNMT2+tRNA (band at high molecular weights); nega?ve control: only tRNA (band at low
# [4] = molecular target: T4, S. aureus TrmD (Staphylococcus aureus, UniProt Q2FZ43); test: S. aureus TrmD enzymatic split aptamer MST assay; type: biochemical; details: 500 µM of hit compound, Fig. 5D
# T4 construct: made in house
# T4 sequence (Q2FZ43 1-245): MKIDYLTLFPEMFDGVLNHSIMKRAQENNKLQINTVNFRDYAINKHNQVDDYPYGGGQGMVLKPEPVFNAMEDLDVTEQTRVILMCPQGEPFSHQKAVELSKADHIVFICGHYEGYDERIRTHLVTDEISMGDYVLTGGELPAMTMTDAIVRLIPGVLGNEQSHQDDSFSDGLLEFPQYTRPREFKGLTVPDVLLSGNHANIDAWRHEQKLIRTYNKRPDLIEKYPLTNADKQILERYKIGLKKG
# Protocol: DNMT2 & S. aureus TrmD: 100 mM Tris-HCl, pH 8, 100 mM NH4OAc, 0.1 mM EDTA, 10 mM MgCl2, 10 mM DTT. For TrmD: 50 nM TrmD, 2 µM SAM, 1 µM tRNA^Leu.
# For MTase assay detection by MST, enzyme reaction mixtures with a total volume of 10 µL per single treatment condition were prepared and incubated for the desired reaction times. Inhibitors were added from corresponding DMSO stocks to a final DMSO concentration of max. 5%. Afterward, reactions were quenched at a given reaction time by the addition of 1 µL sodium dodecyl sulfate (SDS, solution, 3% in water) per 10 µL reaction mixture and mixed well by pipetting. Subsequently, 1 µL of a 10× aptamer-containing detection master mix (200 mM Tris, pH 8.5, 200 mM MgCl2, 3 M NaCl, 10 mM urea, 0.2% Brij, 500 nM aptaSAH1, 500 nM aptaSAH2) was added to the quenched MTase reaction and incubated for 1 h at room temperature. […]
# T1 sequence (Q08J23 whole entry, species assumed): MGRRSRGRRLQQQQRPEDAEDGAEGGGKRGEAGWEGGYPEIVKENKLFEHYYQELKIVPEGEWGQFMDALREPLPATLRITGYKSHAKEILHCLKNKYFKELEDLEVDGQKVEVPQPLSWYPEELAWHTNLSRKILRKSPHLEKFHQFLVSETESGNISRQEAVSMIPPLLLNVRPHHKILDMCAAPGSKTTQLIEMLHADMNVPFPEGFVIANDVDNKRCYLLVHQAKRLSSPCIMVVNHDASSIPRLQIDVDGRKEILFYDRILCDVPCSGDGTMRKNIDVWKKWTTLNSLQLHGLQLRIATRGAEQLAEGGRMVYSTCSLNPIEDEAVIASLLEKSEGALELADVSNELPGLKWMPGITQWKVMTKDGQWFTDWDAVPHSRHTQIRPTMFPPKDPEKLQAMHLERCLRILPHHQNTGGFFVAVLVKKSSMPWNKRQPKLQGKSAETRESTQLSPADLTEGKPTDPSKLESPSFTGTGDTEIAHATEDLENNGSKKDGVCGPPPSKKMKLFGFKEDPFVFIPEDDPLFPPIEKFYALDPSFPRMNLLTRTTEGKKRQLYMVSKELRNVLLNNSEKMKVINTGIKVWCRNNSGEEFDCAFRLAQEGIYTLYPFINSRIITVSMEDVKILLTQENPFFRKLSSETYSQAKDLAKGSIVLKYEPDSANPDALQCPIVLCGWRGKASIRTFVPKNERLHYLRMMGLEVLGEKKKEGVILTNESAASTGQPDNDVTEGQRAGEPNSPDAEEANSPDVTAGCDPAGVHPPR
structure (smiles),measurement,setting,value
"C=CC(=O)NC(=O)NC12CC3CC(CC(C3)C1)C2 [Cpd 11, 1-(adamantan-1-yl)-3-(prop-2-enoyl)urea]",inhibition of NSUN2 (selectivity panel),[1],did not inhibit
same,inhibition of METTL3/14 (selectivity panel),[2],did not inhibit
same,influence on DNMT2-tRNA complex formation,[3],do not inﬂuence the complex
same,inhibition of TrmD (selectivity panel),[4],did not inhibit
